Experimental data: patent US20210220419A1, “Herbal Nutraceutical Formulation to Reduce Oxidative Stress, Viral and Microbial Infections, and Inflammation” (priority 2017, published 2021)
In brackets after ≈: the same amount, converted by molar mass. Read-outs that look alike come from different tables or passages of the source.

Tests used:
[1] = Super oxide radical scavenging assay (NADH/NBT/PMS); type: biochemical
Description: (§1) Gallic acid (reference inhibitor) preparation, For gallic acid, a stock of 500 μg/ml was prepared by dissolving 5 mg of gallic acid in 10 ml of 0.1M phosphate buffer pH 7.4. […] The assay was carried out as per the method of Yen et al. with modifications. In brief, the reaction mixture contained 0.1M phosphate buffer pH 7.4/vehicle buffer/positive control/test sample of various concentrations, 292.5 μM NADH, 37.5 μM NBT and 15 μM PMS. The plate was mixed and incubated at 25° C. for 5 minutes. The absorbance was measured at 560 nm in a micro-plate reader (Versamax, Molecular devices). A control reaction was carried out without test samples. The % inhibition values were calculated as follows: [formula] IC50 was calculated using log-probit analysis.

[2] = Solubility of sample preparation upon visual inspection; type: physicochemical
Description: Briefly, 12.5 mg of the herbal composition 2 contents was weighed, dissolved in 312.5 μl of DMSO and the volume was made up to 10 ml with 100% methanol. Further dilutions were done in 100% methanol containing 3.125% of DMSO. […] For calculation purposes the sample was considered to be 100% soluble.
Gallic acid (reference inhibitor) preparation. For gallic acid, a stock of 200 μg/ml was prepared by dissolving 2 mg of gallic acid in 10 ml of methanol. Further dilutions were made as required with methanol.
Briefly, 29.73 mg of the Herbal composition 2 contents was weighed, dissolved in 500 μl of DMSO and the volume was made up to 25 ml with phosphate buffered saline. […] The sample was filtered and the filtrate was used for the assay. For calculation purposes the sample was considered to be 100% soluble.
Trolox (reference inhibitor) preparation, For trolox, a stock of […] was prepared by dissolving 2 mg of trolox in 2 ml of phosphate buffered saline. […] Further dilutions were made as required with phosphate buffered saline.
Briefly, 8 mg of the Herbal composition 2 contents was weighed, dissolved in 200 μl of DMSO and the volume was made up to 2 ml with 0.1M phosphate buffer pH 7.4. Further dilutions were done in 0.1M phosphate buffer pH 7.4 containing 10% of DMSO. […] For calculation purposes the sample was considered to be 100% soluble.
as §1, with “samples.” for “samples. The % inhibition values were calculated as follows: [formula] IC50 was calculated using log-probit analysis.”

[3] = DPPH radical scavenging assay (Experiment 2); type: biochemical
Description: Gallic acid (reference inhibitor) preparation. For gallic acid, a stock of 200 μg/ml was prepared by dissolving 2 mg of gallic acid in 10 ml of methanol. Further dilutions were made as required with methanol. […] In brief, the total reaction mixture contained methanol/vehicle buffer/positive control/various concentrations of test solution and DPPH to a final concentration of 0.132 mM. The reaction mixture was incubated at 25° C. for 20 minutes. Following incubation the absorbance was read at 510 nm using a micro-well plate reader (Molecular devices Versamax microplate reader). A control reaction was carried out without test samples. The % inhibition values were calculated as follows: [formula] Where, Absorbance=Final Absorbance−Initial absorbance. IC50 was calculated using log-probit analysis.

rat pancreatic islets = assay: Insulin secretion in rat pancreatic islets (ELISA); type: cell-based; conditions: 3 μM
Text: The objective of the experiment is to evaluate the effect of herbal supplement test composition on insulin secretion in rat pancreatic islets. Insulin, a peptide hormone, is secreted by pancreatic β-cells and is a key regulator in glucose homeostasis. Insulin deficiency leads to insulin-dependent (type 1) diabetes, whereas resistance to insulin action is common in non-insulin-dependent diabetes (type 2), obesity, and endocrine dysfunctions. The pancreatic β-cells are known to be sensitive to the glucose concentration in the blood. When the blood glucose levels are high they secrete insulin into the blood; when the levels are low they cease their secretion of this hormone into the general circulation. Insulin released by the β-cells is the main regulator of glucose levels.
Firstly, the herbal supplement composition is dissolved in DMSO with sonication for 15 min and centrifuged at 10,000 rpm for 10 minutes at room temperature to remove insoluble debris. Glyburide (CAS: 10238-21-8) and Glucose are used as reference compounds in the present experiment. Glyburide (CAS: 10238-21-8) is dissolved in DMSO and used at 3 μM. […]
At the end of the 1 hr incubation period, 20 μl of supernatant is gently transferred to another plate. Insulin secretion is measured using the Mercodia Rat Insulin ELISA kit according to the manufacturer's protocol. […]

[4] = DPPH radical scavenging activity, cell-free assay (Experiment 7); type: biochemical; conditions: 200 μM DPPH, 30 min
Description: The objective of this experiment is to evaluate the effect of the supplement concentration on DPPH radical scavenging activity in a cell-free assay. The supplement concentration is dissolved in DMSO with sonication for 15 min and centrifuged at 10,000 rpm for 10 min at room temperature to remove insoluble debris. 2,2-Diphenyl-1-picrylhydrazyl (DPPH) is used as a reagent for this experiment. DPPH is an antioxidant reagent that is used as a free radical trap or scavenger. The color of DPPH changes from red to yellow as its scavenging activity increases. This is measured by absorbance at 517 nm. The reference compound used is Trolox (CAS: 53188-07-1). The Trolox is dissolved in DMSO and used at different concentrations. Trolox is used as positive control.
A reaction mix is made in 200 μL methanol containing 200 μM of DPPH and various concentrations of the supplement. The mixture is mixed gently with a pipette and left to stand for 30 min in the dark, after which absorbance readings are taken at 517 nm. The change in DPPH absorbance is calculated relative to the absorbance of DPPH alone i.e. without the supplement. The DMSO concentration in the assay is maintained at less than equal to 1.0%. The data is fit to a non-linear regression using Graph pad Prism (version 5.0). […]

LDL oxidation = LDL oxidation inhibition assay, human serum, copper sulphate (Experiment 3); type: biochemical
Description: The sample was filtered and the filtrate was used for the assay. […] Trolox (reference inhibitor) preparation, For trolox, a stock of […] was prepared by dissolving 2 mg of trolox in 2 ml of phosphate buffered saline. […] Further dilutions were made as required with phosphate buffered saline. The assay was carried out as per the method of Hodgson et al with modifications. In brief, the reaction mixture contained phosphate buffered saline/vehicle buffer/positive control/test sample of various concentrations and serum from fasting human. Copper sulphate solution was added to the reaction mixture to start the reaction. The reaction mix was mixed and read immediately at 234 nm using a UV-VIS spectrophotometer, for the initial reading, and incubated. After the completion of incubation period, the final absorbance was measured at 234 nm. A control reaction was carried out without test samples. The % inhibition values were calculated as follows: [formula] Where, Absorbance=Final Absorbance−Initial absorbance. IC50 was calculated using log-probit analysis.

Caco-2 cells = assay: NBD-cholesterol uptake in Caco-2 cells; type: cell-based, human; conditions: positive control, 1.25, 2.5, 5 and 10 μM, 48 hrs
Description: The objective of the experiment is to evaluate the effect of the supplement composition on cholesterol uptake in Caco-2 (human epithelial colorectal adenocarcinoma) cells. Cholesterol is both an important structural component of cell membranes and an early intermediate in hormone and bile acid biosynthesis. The supplement composition is dissolved in Dimethyl Sulphoxide (DMSO) with sonication for 15 min and centrifuged at 10,000 rpm for 10 min at room temperature to remove insoluble debris. The reference compound used in the present experiment is U-18666A (CAS: 3039-71-2), which increases cholesterol uptake by inhibiting trafficking of synthesized cholesterol. The U-18666A is dissolved in DMSO and used at a concentration of about 1.25, 2.5, 5 and 10 μM. Moreover, U-18666A is used as a positive control. The reagent used is 3-hexanoyl-NBD Cholesterol. Caco-2 cells are maintained at 60-70% confluence in complete growth medium EMEM containing 20% FBS and required antibiotic. For the assay, cells are harvested using 0.25% trypsin EDTA. The trypsinized cells are centrifuged at 1200 rpm for 5 minutes and re-suspended in growth medium. […] At the end of the incubation period, the plates are washed twice with PBS and cholesterol uptake is calculated by measuring NBD cholesterol fluorescence (Ex 485 nm, Em 535 nm). […]

[5] = system: Low Density Lipoproteins, Human Plasma; assay: LDL oxidation in a cell-free system, Cu2+ induced (Experiment 10); type: biochemical; conditions: reference compounds, FIG. 6B

O=C(O)c1cc(O)c(O)c(O)c1 [Gallic Acid, Gallic acid]
% Inhibition (Mean ± SEM), super oxide radical ([1]; 5 μg/ml): 27.00 ± 3.37%
% Inhibition (Mean ± SEM), super oxide radical ([1]; 10 μg/ml): 32.89 ± 3.26%
% Inhibition (Mean ± SEM), super oxide radical ([1]; 20 μg/ml): 47.80 ± 4.26%
% Inhibition (Mean ± SEM), super oxide radical ([1]; 40 μg/ml): 69.50 ± 1.00%
% Inhibition (Mean ± SEM), super oxide radical ([1]; 80 μg/ml): 83.67 ± 0.00%
IC50 (95% Confidence Interval), super oxide radical scavenging ([1]; log-probit analysis): 17.86 µg/mL (≈ 105 µM)
Solubility upon visual inspection [2]: approximately 100%
Solubility upon visual inspection ([2]; pH 7.4): approximately 100%
% Inhibition (Mean ± SEM), DPPH ([3]; 0.5 μg/ml): 8.71 ± 1.12%
% Inhibition (Mean ± SEM), DPPH ([3]; 1.5 μg/ml): 32.14 ± 2.42%
% Inhibition (Mean ± SEM), DPPH ([3]; 2.5 μg/ml): 60.58 ± 2.84%
% Inhibition (Mean ± SEM), DPPH ([3]; 5 μg/ml): 80.52 ± 0.57%
IC50 (95% Confidence Interval), DPPH radical scavenging ([3]; log-probit analysis): 2.09 µg/mL (≈ 12.3 µM)

COc1ccc(Cl)cc1C(=O)NCCc1ccc(S(=O)(=O)NC(=O)NC2CCCCC2)cc1 [Glyburide]
Insulin secretion, effect in words (rat pancreatic islets): significant increase

Cc1c(C)c2c(c(C)c1O)CCC(C)(C(=O)O)O2 (centres unmarked) [Trolox]
EC50, DPPH scavenging activity [4]: 28 µg/mL (≈ 112 µM)
Solubility upon visual inspection [2]: approximately 100%
% Inhibition (Mean ± SEM), LDL oxidation (LDL oxidation; 0.25 μM): 48.80 ± 6.21%
% Inhibition (Mean ± SEM), LDL oxidation (LDL oxidation; 0.5 μM): 73.07 ± 3.39%
% Inhibition (Mean ± SEM), LDL oxidation (LDL oxidation; 1.0 μM): 76.33 ± 0.07%
% Inhibition (Mean ± SEM), LDL oxidation (LDL oxidation; 2.0 μM): 79.04 ± 0.64%
IC50 (LDL oxidation; log-probit analysis, read-out: IC50 (95% Confidence Interval), LDL oxidation inhibition): 180 nM

CCN(CC)CCO[C@H]1CC[C@@]2(C)C(=CC[C@@H]3[C@@H]2CC[C@]2(C)C(=O)CC[C@@H]32)C1 [U-18666A]
Increase in NBD-cholesterol uptake (Caco-2 cells): up to 25%

O=C1O[C@H]([C@@H](O)CO)C(O)=C1O [ascorbic acid]
Inhibition of LDL oxidation, in words [5]: significant inhibition
